Laboratory results: patent US9801901B2, “Alginate oligomers for use in overcoming multidrug resistance in bacteria” (priority 2009, dated 2017)
In brackets after ≈: the same amount, converted by molar mass. Like-named read-outs stand apart in the source and are kept apart here. Marks after values point to notes of the source that are not given here.

Key:
[1] = system: V23 1322 Burkholderia cepacia; assay: MIC assay, CAMHB with alginate oligomer, no visible growth; type: cell-based
V5 AIM-1 E. coli = assay: as above; type: cell-based; conditions: Table 4, V5 MDR E. coli
From the text: (§1) The study described in Example 1 was repeated with the following strains of bacteria and antibiotics as detailed in Tables 4, 5 and 6.

[2] = system: Pseudomonas aeruginosa MDR R22 from China (V1); assay: as above; type: cell-based; conditions: Table 4, V1 MDR (China)
From the text: as §1

[3] = system: Pseudomonas aeruginosa ATCC 39324, mucoid type strain (R79); assay: as above; type: cell-based; conditions: R79 non MDR (muc.)
[4] = system: V9 (Egypt) Acinetobacter baumannii; assay: as above; type: cell-based; conditions: Table 5, V9 MDR Acin. baum
[5] = system: V10 (Egypt) Acinetobacter lwoffii; assay: as above; type: cell-based; conditions: Table 5, V10 MDR Acin. lwoff
[6] = system: Pseudomonas aeruginosa CFA 24-1, clinical mucoid strain (R80); assay: as above; type: cell-based; conditions: Table 4, R80 non MDR (muc.)
[7] = system: Pseudomonas aeruginosa MDR 301 from Poland (V2); assay: as above; type: cell-based; conditions: Table 4, V2 MDR (Pol.)
[8] = system: V12 5725 (Wales) Klebsiella pneumoniae; assay: as above; type: cell-based; conditions: Table 5, V12 MDR Kleb pneu
V11 5702 (Wales) E. coli = assay: as above; type: cell-based; conditions: Table 5, V11 MDR E.coli
[9] = system: Klebsiella pneumoniae KP05 506 from India (V3); assay: as above; type: cell-based; conditions: Klebsiella pneumoniae, Table 4; V3 MDR (India); OligoCF-5/20 +10% G; read-out: MIC
[10] = system: Acinetobacter baumannii MDR ACB from Libya (V4); assay: as above; type: cell-based; conditions: Table 4, V4 MDR (Libya)
From the text: as §1
The study described in Example 1 was repeated with the following strains of Acinetobacter baumannii, antibiotics and M-block alginate oligomer in place of OligoG CF-5/20 as detailed in Table 7. The M-block oligomer is 100% M with a DPn of 15 to 18,

[11] = system: PA01 Pseudomonas aeruginosa ATCC 15692; assay: MIC assay, two-fold antibiotic dilutions in CAMHB with alginate oligomer, no visible growth; type: cell-based; conditions: PA01 non MDR
V22 6056 Acinetobacter = assay: MIC assay, CAMHB with alginate oligomer, no visible growth; type: cell-based, Acinetobacter lwoffii; conditions: Table 5, V22 MDR Acin. lwoff
[12] = Table 5, V23 MDR Burk cep, OligoCF-5/20 +6% G
[13] = Table 5, V23 MDR Burk cep, OligoCF-5/20 +10% G
[14] = Pseudomonas aeruginosa, OligoCF-5/20 +2% G, read-out: MIC
[15] = Pseudomonas aeruginosa, OligoCF-5/20 +6% G, read-out: MIC
[16] = Pseudomonas aeruginosa, OligoCF-5/20 +10% G, read-out: MIC
[17] = Acinetobacter baumannii, OligoCF-5/20 0G, read-out: MIC
[18] = Pseudomonas aeruginosa, OligoCF-5/20 0G, read-out: MIC

Molecule `CC[C@H]1OC(=O)[C@H](C)[C@@H](O[C@H]2C[C@@](C)(OC)[C@@H](O)[C@H](C)O2)[C@H](C)[C@@H](O[C@@H]2O[C@H](C)C[C@H](N(C)C)[C@H]2O)[C@](C)(OC)C[C@@H](C)C(=O)[C@H](C)[C@@H](O)[C@]1(C)O` [Clarithromycin] has an MIC ([1]; Burkholderia cepacia, Table 5, V23 MDR Burk cep, OligoCF-5/20 0G, read-out: MIC) of 512 µg/mL (≈ 685 µM), an MIC ([1]; Burkholderia cepacia, Table 6, V23, Experiment 2 (18-03-10), OligoCF-5/20 0G, read-out: MIC) of 128 µg/mL (≈ 171 µM) and an MIC ([1]; Burkholderia cepacia, Table 6, V23, Experiment 3 (19-03-10), OligoCF-5/20 0G, read-out: MIC) of 64 µg/mL (≈ 85.6 µM). For the same molecule, the MIC [1, 12] was 128^† μg/ml, the MIC [1, 13] was 32^† μg/ml and the MIC ([1]; Table 6, V23, Experiment 1 (18-03-10), OligoCF-5/20 +6% G) was 128^† μg/ml. The MIC ([1]; Table 6, V23, Experiment 1 (18-03-10), OligoCF-5/20 +10% G) was 128^† μg/ml, the MIC ([1]; Table 6, V23, Experiment 2 (18-03-10), OligoCF-5/20 +2% G) was 128 µg/mL (≈ 171 µM) and the MIC ([1]; Table 6, V23, Experiment 2 (18-03-10), OligoCF-5/20 +6% G) was 32^† μg/ml. For the same molecule, the MIC ([1]; Table 6, V23, Experiment 2 (18-03-10), OligoCF-5/20 +10% G) was 16^† μg/ml, the MIC ([1]; Table 6, V23, Experiment 3 (19-03-10), OligoCF-5/20 +2% G) was 512^‡ μg/ml and the MIC ([1]; Table 6, V23, Experiment 3 (19-03-10), OligoCF-5/20 +6% G) was 512^‡ μg/ml. The MIC ([1]; Table 6, V23, Experiment 3 (19-03-10), OligoCF-5/20 +10% G) was 512‡ μg/ml, the MIC (V5 AIM-1 E. coli; Escherichia coli, OligoCF-5/20 0G) was 4 µg/mL (≈ 5.35 µM) and the MIC (V5 AIM-1 E. coli; Escherichia coli, OligoCF-5/20 +2% G) was 4 µg/mL (≈ 5.35 µM). The MIC (V5 AIM-1 E. coli; Escherichia coli, OligoCF-5/20 +6% G) was ≤ 1 µg/mL, the MIC (V5 AIM-1 E. coli; Escherichia coli, OligoCF-5/20 +10% G) was ≤ 1 µg/mL and the MIC [2, 14] was 128 µg/mL (≈ 171 µM). The MIC [2, 15] was 64 µg/mL (≈ 85.6 µM), the MIC [2, 16] was 32 µg/mL (≈ 42.8 µM) and the MIC ([3]; Pseudomonas aeruginosa, ATCC39324, Table 4, OligoCF-5/20 +2% G, read-out: MIC) was 128 µg/mL (≈ 171 µM). It also gave an MIC ([3]; Pseudomonas aeruginosa, ATCC39324, Table 4, OligoCF-5/20 +6% G, read-out: MIC) of 32 µg/mL (≈ 42.8 µM), an MIC ([3]; Pseudomonas aeruginosa, ATCC39324, Table 4, OligoCF-5/20 +10% G, read-out: MIC) of 4 µg/mL (≈ 5.35 µM) and an MIC [4, 17] of 16 µg/mL (≈ 21.4 µM). For the same molecule, the MIC ([4]; OligoCF-5/20 +2% G) was 4^† μg/ml, the MIC ([4]; OligoCF-5/20 +6% G) was 2^† μg/ml and the MIC ([4]; OligoCF-5/20 +10% G) was 1^† μg/ml. The MIC ([5]; Acinetobacter lwoffii, OligoCF-5/20 0G, read-out: MIC) was < 0.5 µg/mL, the MIC ([5]; OligoCF-5/20 +6% G) was <0.5 µg/mL and the MIC ([5]; OligoCF-5/20 +10% G) was <0.5 µg/mL. For the same molecule, the MIC [6, 18] was 1020 µg/mL (≈ 1370 µM), the MIC [6, 14] was 512 µg/mL (≈ 685 µM) and the MIC [6, 16] was 64 µg/mL (≈ 85.6 µM). The MIC [7, 18] was 512 µg/mL (≈ 685 µM), the MIC [7, 15] was 128 µg/mL (≈ 171 µM) and the MIC [7, 16] was 32 µg/mL (≈ 42.8 µM). The MIC ([8]; Klebsiella pneumoniae, OligoCF-5/20 0G, read-out: MIC) was 512 µg/mL (≈ 685 µM), the MIC ([8]; OligoCF-5/20 +10% G) was 512 µg/mL (≈ 685 µM) and the MIC (V11 5702 (Wales) E. coli; Escherichia coli, OligoCF-5/20 0G, read-out: MIC) was 512 µg/mL (≈ 685 µM). The MIC (V11 5702 (Wales) E. coli; OligoCF-5/20 +2% G) was 128^† μg/ml, the MIC [9] was 128 µg/mL (≈ 171 µM) and the MIC [10, 17] was 8 µg/mL (≈ 10.7 µM). For the same molecule, the MIC ([10]; Acinetobacter baumannii, OligoCF-5/20 +2% G, read-out: MIC) was 4 µg/mL (≈ 5.35 µM), the MIC ([10]; Acinetobacter baumannii, OligoCF-5/20 +6% G, read-out: MIC) was ≤ 1 µg/mL and the MIC ([10]; Acinetobacter baumannii, OligoCF-5/20 +10% G, read-out: MIC) was ≤ 1 µg/mL. The MIC ([11]; Pseudomonas aeruginosa, ATCC15692, Table 4, OligoCF-5/20 +2% G, read-out: MIC) was 128 µg/mL (≈ 171 µM), the MIC ([11]; Pseudomonas aeruginosa, ATCC15692, Table 4, OligoCF-5/20 +6% G, read-out: MIC) was 64 µg/mL (≈ 85.6 µM) and the MIC ([11]; Pseudomonas aeruginosa, ATCC15692, Table 4, OligoCF-5/20 +10% G, read-out: MIC) was 32 µg/mL (≈ 42.8 µM).
With Spiramycin the MIC ([1]; Table 5, V23 MDR Burk cep, OligoCF-5/20 0G) was >4096^† μg/ml, the MIC ([1]; Table 5, V23 MDR Burk cep, OligoCF-5/20 +2% G) was 2048^† μg/ml and the MIC [1, 12] was 2048^† μg/ml. For the same molecule, the MIC [1, 13] was 1024^† μg/ml, the MIC (V5 AIM-1 E. coli; OligoCF-5/20 0G) was 32^† μg/ml and the MIC (V5 AIM-1 E. coli; OligoCF-5/20 +2% G) was 32 µg/mL. For the same molecule, the MIC (V5 AIM-1 E. coli; OligoCF-5/20 +6% G) was 16^† μg/ml, the MIC (V5 AIM-1 E. coli; OligoCF-5/20 +10% G) was 8† μg/ml and the MIC ([2]; OligoCF-5/20 0G) was >1024^† μg/ml. The MIC ([2]; OligoCF-5/20 +10% G) was 512^† μg/ml, the MIC ([3]; Table 4, OligoCF-5/20 0G) was >1024^† μg/ml and the MIC ([3]; Table 4, OligoCF-5/20 +10% G) was 256^† μg/ml. The MIC ([4]; OligoCF-5/20 0G) was 256^† μg/ml, the MIC ([4]; OligoCF-5/20 +2% G) was 64^† μg/ml and the MIC ([4]; OligoCF-5/20 +6% G) was 32^† μg/ml. For the same molecule, the MIC ([4]; OligoCF-5/20 +10% G) was 16^† μg/ml, the MIC (V22 6056 Acinetobacter; OligoCF-5/20 0G) was <4 µg/mL and the MIC (V22 6056 Acinetobacter; OligoCF-5/20 +2% G) was <4 µg/mL. For the same molecule, the MIC (V22 6056 Acinetobacter; OligoCF-5/20 +6% G) was <4 µg/mL, the MIC (V22 6056 Acinetobacter; OligoCF-5/20 +10% G) was <4 µg/mL and the MIC ([5]; OligoCF-5/20 0G) was <4 µg/mL. The MIC ([5]; OligoCF-5/20 +2% G) was <4 µg/mL, the MIC ([5]; OligoCF-5/20 +6% G) was <4 µg/mL and the MIC ([5]; OligoCF-5/20 +10% G) was <4 µg/mL. The MIC ([6]; OligoCF-5/20 0G) was >1024^† μg/ml, the MIC ([7]; OligoCF-5/20 0G) was >1024^† μg/ml and the MIC ([8]; OligoCF-5/20 0G) was 67^† μg/ml. The MIC ([8]; OligoCF-5/20 +2% G) was 64 µg/mL, the MIC ([8]; OligoCF-5/20 +6% G) was 32^† μg/ml and the MIC ([8]; OligoCF-5/20 +10% G) was 16† μg/ml. For the same molecule, the MIC (V11 5702 (Wales) E. coli; OligoCF-5/20 0G) was 128^† μg/ml, the MIC (V11 5702 (Wales) E. coli; OligoCF-5/20 +2% G) was 64^† μg/ml and the MIC (V11 5702 (Wales) E. coli; OligoCF-5/20 +6% G) was 32^† μg/ml. The MIC (V11 5702 (Wales) E. coli; OligoCF-5/20 +10% G) was 32^† μg/ml, the MIC ([10]; OligoCF-5/20 0G) was 512^† μg/ml and the MIC ([10]; OligoCF-5/20 +2% G) was 64^† μg/ml. The MIC ([10]; OligoCF-5/20 +6% G) was 64^† μg/ml, the MIC ([10]; OligoCF-5/20 +10% G) was 32^† μg/ml and the MIC ([11]; Table 4, OligoCF-5/20 0G) was >1024^† μg/ml. The MIC ([11]; Table 4, OligoCF-5/20 +10% G) was 512^† μg/ml.
